From patent publication US11000033B2, “Ketone or oxime compound, and herbicide” (NISSAN CHEMICAL CORPORATION, priority 2014, dated 2021)

How the values were obtained:
Format in all cases: in vivo
Scirpus juncoides = test: Test Example 2: herbicidal activity, application during weed generation in submerged conditions (symbol B); conditions: Table 23; application herbicide amount 320 g/ha; grade 0-5 by criteria of Test Example 1
Procedure, shortened: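 Treatment timing was the one- to two-leaf stage, with diluted emulsifiable compound dropped onto the paddy water (depth 4 cm) over alluvial soil. All three species grew from a mixed sowing in a 25° C. to 30° C. greenhouse. Injury was judged by eye 3 weeks on.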

Avena fatua [1] = test: Test Example 5: herbicidal effect by foliage application, plastic box (symbol I); conditions: 320 g/ha, 3 weeks after application
Procedure, shortened: (§1)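 Seeds were sown in sterilized diluvial soil, covered with about 1.5 cm of soil and grown 14 days in a greenhouse at 25° C. to 30° C. An emulsifiable formulation diluted in water to a set rate was sprayed over foliage, and injury was scored 3 weeks later.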

Abutilon theophrasti [2] = test: Test Example 5: herbicidal effect by foliage application, plastic box (symbol M); conditions: 320 g/ha, 3 weeks after application
Procedure, shortened: as §1

Stellaria media = test: Test Example 4: herbicidal effect by soil treatment (symbol P); conditions: for P (Stellaria media) herbicidal effect grade: application herbicide amount 320 g/ha; for P: Stellaria media, herbicidal effect grade: 320 g/ha
Procedure, shortened: (§2)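 Seeds were sown in sterilized diluvial soil, covered with about 1.5 cm of soil, and the soil surface was sprayed with a water-diluted emulsion of the compound at a predetermined rate. Plants grew in a greenhouse at 25° C. to 30° C.; effects were scored visually 3 weeks after application.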

Lolium multiflorum Lam. = test: Test Example 5: herbicidal effect by foliage application, plastic box (symbol K); conditions: 320 g/ha, 3 weeks after application
Procedure, shortened: as §1

Leptochloa chinensis = test: Test Example 3: herbicidal effect by foliage application, Wagner pot (symbol D); conditions: application herbicide amount 320 g/ha
Procedure, shortened: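 The compound, formulated as an emulsion and diluted with water to a predetermined rate, is applied uniformly to leaves of two-week-old seedlings growing in submerged alluvial soil at 25–30 °C. Rice is included. Each plant is assessed 3 weeks later using defined criteria.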

[3] = system: directly sowed rice plant; test: Test Example 3: effect on crop by foliage application, Wagner pot (symbol b); conditions: application herbicide amount 320 g/ha
Procedure, shortened: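 Alluvial soil in a 1/10000-are Wagner pot was flooded to a water depth of 0.1–0.5 cm. Echinochloa crus-galli var. crus-galli, Leptochloa chinensis, Cyperus difformis and rice were sown into it and grown in a greenhouse at 25–30 °C.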

beet = test: Test Example 4: effect on crop by soil treatment (symbol f); conditions: for f (beet) effect on crop grade: application herbicide amount 320 g/ha; for f: beet, effect grade on crop: 320 g/ha
Procedure, shortened: (§3)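 Seeds were sown in spots on sterilized diluvial soil in a plastic box and covered with about 1.5 cm of soil. Plants were then grown in a greenhouse at 25° C. to 30° C.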

Digitaria ciliaris = test: Test Example 4: herbicidal effect by soil treatment (symbol F); conditions: for F (Digitaria ciliaris) herbicidal effect grade: application herbicide amount 320 g/ha; for F: Digitaria ciliaris, herbicidal effect grade: 320 g/ha
Procedure, shortened: as §2

Avena fatua [4] = test: Test Example 4: herbicidal effect by soil treatment (symbol I); conditions: for I (Avena fatua) herbicidal effect grade: application herbicide amount 320 g/ha; for I: Avena fatua, herbicidal effect grade: 320 g/ha
Procedure, shortened: as §2

wheat = test: Test Example 5: effect on crop by foliage application, plastic box (symbol e); conditions: 320 g/ha, 3 weeks after application
Procedure, shortened: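 Plants were raised from seed in a greenhouse (25° C. to 30° C.) after sowing in a plastic box of sterilized diluvial soil.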

Abutilon theophrasti [5] = test: Test Example 4: herbicidal effect by soil treatment (symbol M); conditions: for M (Abutilon theophrasti) herbicidal effect grade: application herbicide amount 320 g/ha; for M: Abutilon theophrasti, herbicidal effect grade: 320 g/ha
Procedure, shortened: as §2

corn = test: Test Example 4: effect on crop by soil treatment (symbol c); conditions: for c (corn) effect on crop grade: application herbicide amount 320 g/ha; for c: corn, effect grade on crop: 320 g/ha
Procedure, shortened: as §3

SMILES	Herbicidal effect grade, B: Scirpus juncoides (Scirpus juncoides)	I: Avena fatua, herbicidal effect grade (Avena fatua [1])	M: Abutilon theophrasti, herbicidal effect grade (Abutilon theophrasti [2])	P (Stellaria media) herbicidal effect grade (Stellaria media)	K: Lolium multiflorum Lam., herbicidal effect grade (Lolium multiflorum Lam.)	herbicidal effect on D (Leptochloa chinensis), grade 0-5 (Leptochloa chinensis)	effect on crop b (directly sowed rice plant), grade 0-5 [3]	f (beet) effect on crop grade (beet)	F (Digitaria ciliaris) herbicidal effect grade (Digitaria ciliaris)	I (Avena fatua) herbicidal effect grade (Avena fatua [4])	e: wheat, effect on crop grade (wheat)	M (Abutilon theophrasti) herbicidal effect grade (Abutilon theophrasti [5])	c (corn) effect on crop grade (corn)	I: Avena fatua, herbicidal effect (criteria 0-5) (Avena fatua [1])	M: Abutilon theophrasti, herbicidal effect (criteria 0-5) (Abutilon theophrasti [2])	P: Stellaria media, herbicidal effect grade (Stellaria media)	K: Lolium multiflorum Lam., herbicidal effect (criteria 0-5) (Lolium multiflorum Lam.)	f: beet, effect grade on crop (beet)	F: Digitaria ciliaris, herbicidal effect grade (Digitaria ciliaris)	I: Avena fatua, herbicidal effect grade (Avena fatua [4])	further results
CC(CC1CC(O)=C(c2c(C)cc(C)cc2C)C1=O)=NOCC(=O)N1CCOCC1 (centres unmarked) [1-025]	0 (Herbicidal ratio of 5% or lower (almost no effect))	5 (Herbicidal ratio of 90% or more (almost completely withered))	1 (Herbicidal ratio of 5% or higher and lower than 20%)	0 (Herbicidal ratio of 5% or lower (almost no effect))	5 (Herbicidal ratio of 90% or more (almost completely withered))	5 (Herbicidal ratio of 90% or more (almost completely withered))	5 (Herbicidal ratio of 90% or more (almost completely withered))	0 (Herbicidal ratio of 5% or lower (almost no effect))	5 (Herbicidal ratio of 90% or more (almost completely withered))	3 (Herbicidal ratio of 40% or higher and lower than 70%)	4 (Herbicidal ratio of 70% or higher and lower than 90%)	0 (Herbicidal ratio of 5% or lower (almost no effect))	0 (Herbicidal ratio of 5% or lower (almost no effect))								
CON=C(C)CC1CC(OC(=O)COc2cccc(OC)c2)=C(c2c(C)cc(C)cc2C)C1=O (centres unmarked) [1-068]	5 (Herbicidal ratio of 90% or more (almost completely withered))	5 (Herbicidal ratio of 90% or more (almost completely withered))	5 (Herbicidal ratio of 90% or more (almost completely withered))	0 (Herbicidal ratio of 5% or lower (almost no effect))	5 (Herbicidal ratio of 90% or more (almost completely withered))	5 (Herbicidal ratio of 90% or more (almost completely withered))	5 (Herbicidal ratio of 90% or more (almost completely withered))	0 (Herbicidal ratio of 5% or lower (almost no effect))	5 (Herbicidal ratio of 90% or more (almost completely withered))	3 (Herbicidal ratio of 40% or higher and lower than 70%)	5 (Herbicidal ratio of 90% or more (almost completely withered))	4 (Herbicidal ratio of 70% or higher and lower than 90%)	5 (Herbicidal ratio of 90% or more (almost completely withered))								
CON=C(C)CC1CC(OC(=O)C2=CCCC2)=C(c2c(C)cc(C)cc2C)C1=O (centres unmarked) [1-088]	5 (Herbicidal ratio of 90% or more (almost completely withered))					5 (Herbicidal ratio of 90% or more (almost completely withered))	5 (Herbicidal ratio of 90% or more (almost completely withered))							5 (Herbicidal ratio of 90% or more (almost completely withered))	4 (Herbicidal ratio of 70% or higher and lower than 90%)	0 (Herbicidal ratio of 5% or lower (almost no effect))	5 (Herbicidal ratio of 90% or more (almost completely withered))	0 (Herbicidal ratio of 5% or lower (almost no effect))	5 (Herbicidal ratio of 90% or more (almost completely withered))	3 (Herbicidal ratio of 40% or higher and lower than 70%)	e: wheat, effect on crop (criteria 0-5) (wheat): 5 (Herbicidal ratio of 90% or more (almost completely withered)); M: Abutilon theophrasti, herbicidal effect grade (Abutilon theophrasti [5]): 0 (Herbicidal ratio of 5% or lower (almost no effect)); c: corn, effect grade on crop (corn): 4 (Herbicidal ratio of 70% or higher and lower than 90%)
CC#CC(=O)OC1=C(c2c(C)cc(C)cc2C)C(=O)C(CC(C)=NOC)C1 (centres unmarked) [1-095]	4 (Herbicidal ratio of 70% or higher and lower than 90%)					5 (Herbicidal ratio of 90% or more (almost completely withered))	5 (Herbicidal ratio of 90% or more (almost completely withered))							5 (Herbicidal ratio of 90% or more (almost completely withered))	4 (Herbicidal ratio of 70% or higher and lower than 90%)	0 (Herbicidal ratio of 5% or lower (almost no effect))	5 (Herbicidal ratio of 90% or more (almost completely withered))	0 (Herbicidal ratio of 5% or lower (almost no effect))	5 (Herbicidal ratio of 90% or more (almost completely withered))	3 (Herbicidal ratio of 40% or higher and lower than 70%)	e: wheat, effect on crop (criteria 0-5) (wheat): 5 (Herbicidal ratio of 90% or more (almost completely withered)); M: Abutilon theophrasti, herbicidal effect grade (Abutilon theophrasti [5]): 4 (Herbicidal ratio of 70% or higher and lower than 90%); c: corn, effect grade on crop (corn): 5 (Herbicidal ratio of 90% or more (almost completely withered))
CCC(C)C(CC1CC(O)=C(c2c(C)cc(C)cc2C)C1=O)=NOC (centres unmarked) [1-066]	0 (Herbicidal ratio of 5% or lower (almost no effect))	4 (Herbicidal ratio of 70% or higher and lower than 90%)	1 (Herbicidal ratio of 5% or higher and lower than 20%)	0 (Herbicidal ratio of 5% or lower (almost no effect))	5 (Herbicidal ratio of 90% or more (almost completely withered))	2 (Herbicidal ratio of 20% or higher and lower than 40%)	5 (Herbicidal ratio of 90% or more (almost completely withered))	0 (Herbicidal ratio of 5% or lower (almost no effect))	4 (Herbicidal ratio of 70% or higher and lower than 90%)	0 (Herbicidal ratio of 5% or lower (almost no effect))	0 (Herbicidal ratio of 5% or lower (almost no effect))	0 (Herbicidal ratio of 5% or lower (almost no effect))	4 (Herbicidal ratio of 70% or higher and lower than 90%)								
